# Experimental data published in US20240158348A1, “HERBICIDAL CYCLIC AMIDES N-SUBSTITUTED WITH A HALOALKYLSULFONYLANILIDE GROUP” (FMC Corporation, priority 2021, published 2024).
# Tests used:
# Type in all cases: in vivo
# corn (Zea mays) [1] = assay: Test C postemergence, corn; conditions: for Corn plant response rating: 31 g ai/ha Postemergence, visual injury, 0 to 100 scale (0 no effect, 100 complete control); for Plant response rating (0 to 100 scale), Corn: 125 g ai/ha Postemergence, 0 is no effect, 100 is complete control
# corn (Zea mays) [2] = assay: Test C preemergence, corn; conditions: 0 is no effect, 100 is complete control
# Method in brief: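 Corn, ragweed and goosegrass were sown in loam/sand and given a preemergence directed soil spray of compounds in a non-phytotoxic solvent with surfactant. Galium was sprayed postemergence at 2–10 cm height, one- to two-leaf stage. After 10 or 12 days in a greenhouse, injury was rated visually against untreated controls on a 0 (no effect) to 100 (complete control) scale.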
# soybean (Glycine max) = assay: Test C preemergence, soybean; conditions: 0 is no effect, 100 is complete control
# Method in brief: (§1)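 Herbicidal effect was estimated visually on a 0–100 scale 10 or 12 days after spraying. Formulation: non-phytotoxic solvent mixture with surfactant. Timing: directed soil spray after sowing, or postemergence on seedlings bearing one or two leaves.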
# [3] = system: ragweed (common ragweed, Ambrosia artemisiifolia); assay: Test C postemergence, ragweed; conditions: for Ragweed plant response rating: visual injury, 0 to 100 scale (0 no effect, 100 complete control)
# Method in brief: as §1
# [4] = system: blackgrass (Alopecurus myosuroides); assay: Test C preemergence, blackgrass; conditions: 0 is no effect, 100 is complete control
# Method in brief: as §1
# [5] = system: oat, wild (wild oat, Avena fatua); assay: Test C postemergence, wild oat; conditions: for Oat, Wild plant response rating: 31 g ai/ha Postemergence, visual injury, 0 to 100 scale (0 no effect, 100 complete control); for Plant response rating (0 to 100 scale), Oat, Wild: 125 g ai/ha Postemergence, 0 is no effect, 100 is complete control
# [6] = system: horseweed (Erigeron canadensis); assay: Test C postemergence, horseweed; conditions: for Horseweed plant response rating: 31 g ai/ha Postemergence, visual injury, 0 to 100 scale (0 no effect, 100 complete control); for Plant response rating (0 to 100 scale), Horseweed: 125 g ai/ha Postemergence, 0 is no effect, 100 is complete control
# Method in brief: as §1
# kochia (Bassia scoparia) = assay: Test C preemergence, kochia; conditions: 0 is no effect, 100 is complete control
# Method in brief: as §1
SMILES,Corn plant response rating (corn (Zea mays) [1]),"Plant response rating (0 to 100 scale), Corn (corn (Zea mays) [1])","Plant response rating (0 to 100 scale), Corn (corn (Zea mays) [2]; 31 g ai/ha Preemergence)","Plant response rating (0 to 100 scale), Corn (corn (Zea mays) [2]; 125 g ai/ha Preemergence)","Plant response rating (0 to 100 scale), Soybean (soybean (Glycine max); 31 g ai/ha Preemergence)","Plant response rating (0 to 100 scale), Soybean (soybean (Glycine max); 125 g ai/ha Preemergence)",Ragweed plant response rating ([3]; 31 g ai/ha Postemergence),"Plant response rating (0 to 100 scale), Ragweed ([3]; 125 g ai/ha Postemergence, 0 is no effect, 100 is complete control)","Plant response rating (0 to 100 scale), Blackgrass ([4]; 31 g ai/ha Preemergence)","Plant response rating (0 to 100 scale), Blackgrass ([4]; 125 g ai/ha Preemergence)","Oat, Wild plant response rating [5]","Plant response rating (0 to 100 scale), Oat, Wild [5]",Horseweed plant response rating [6],"Plant response rating (0 to 100 scale), Horseweed [6]","Plant response rating (0 to 100 scale), Kochia (kochia (Bassia scoparia); 31 g ai/ha Preemergence)","Plant response rating (0 to 100 scale), Kochia (kochia (Bassia scoparia); 125 g ai/ha Preemergence)",Ragweed plant response rating ([3]; 125 g ai/ha Postemergence)
Cc1c(N2CCC(OC3CC3)C2=O)cc(N(COC(=O)C(C)(C)C)S(=O)(=O)C(F)(F)F)c(C)c1F (stereo not shown) [Compound 23],30,90,10,20,30,40,90,90,0,10,20,50,80,90,20,90,–
Cc1cc(Cl)c(N(COC(=O)C(C)(C)C)S(=O)(=O)C(F)(F)F)cc1N1CCC(OC2CC2)C1=O (stereo not shown) [Compound 33],80,90,30,60,0,60,90,–,20,80,30,70,70,100,100,100,90
Cc1c(NS(=O)(=O)C(F)(F)F)cc(N2CCCC(OC3CCC3)C2=O)c(C)c1F (stereo not shown) [Compound 36],0,20,30,90,90,90,40,–,80,100,30,30,40,70,20,90,90
Cc1c(N2CCCC(OC3CC3)C2=O)cc(N(COC(=O)C(C)(C)C)S(=O)(=O)C(F)(F)F)c(C)c1F (stereo not shown) [Compound 37],10,90,0,10,0,30,60,–,10,60,20,70,80,80,0,90,90
